In patent US20140080758A1, “TREATMENT OF KIDNEY DISORDERS WITH VIP FRAGMENTS” (Vectus […] Limited, priority 2008, published 2014) one finds renal interstitial fibrosis data, which are given here for one substance.

This assay has as its system spontaneously hypertensive rats (SHR) on 2.2% salt diet. Briefly: Renal interstitial fibrosis after 4-week peptide infusion in SHR on 2.2% salt diet. The assay is classed as in vivo, rat. The conditions noted are these: infusion 5 pmol/kg/min intravenously by osmotic minipump for 4 weeks, versus vehicle control, fibrosis as percent surface area. An excerpt:
For kidney fibrosis experiments, two types of rats were used, spontaneously hypertensive rats (SHR) and normotensive control Wistar-Kyoto rats (WKY) (animals were obtained from Australian Animal Resources, Perth, Western Australia, Australia)
i) Male spontaneously hypertensive (SHR) rats on 2.2% salt diet ii) Male Wistar Kyoto (WKY) rats on 4.4% salt diets
Commencing at 12 weeks of age, the rats were acclimatized to tail cuff blood pressure measurements and handling for 2 weeks. They then underwent operative insertion of an osmotic minipump (Alzet—Manufacturer: Durect Corporation, Cupertino, Calif., USA; Supplier: Bioscientific Gymea, NSW, Australia) which was designed to deliver vehicle alone (Hartman's solution, Baxter Health Care Corporation, USA)—(Controls) or VIP, VIP fragment or analogue at a dose of 4 pmol/kg/min or 5 pmol/kg/min intravenously.
The infusion was continued for 4 weeks, during which the rats were weighed and their blood pressures measured twice weekly. At the end of the 4 week infusion period, the rats were anaesthetized and their kidneys harvested. […]
For quantitation of interstitial fibrosis, twenty microscopic fields from each kidney were digitized and the amount of fibrosis in each determined as percent surface area using Image-Pro Plus V5.0 software (Cybernetics). The mean value for each rat and subsequently for each infusion group was then determined.

As for “His-Ser-Asp-Ala-Val-Phe-Thr-Asp-Asn-Tyr-Thr-Arg-Leu-Arg-Lys-Gln-Met-Ala-Val-Lys-Lys-Tyr-Leu-Asn-Ser-Ile-Leu-Asn (HSDAVFTDNYTRLRKQMAVKKYLNSILN; listed as Homo sapiens) [VIP]”, the renal interstitial fibrosis entry is “reductions in renal interstitial fibrosis”.
